Series [1] concerns E.coli ATCC25915. In words: Well diffusion inhibition zone, E. coli. To be noted: Escherichia coli, ATCC25915, read-out: Inhibition zone E.coli ATCC25915.
Series [2] relates to S. aureus ATCC25923. As to the kind of experiment: Well diffusion inhibition zone, S. aureus. To be noted: Staphylococcus aureus, ATCC25923, read-out: Inhibition zone S. aureus ATCC25923. (In general: A growth-free zone around the sample is the usual read-out of agar diffusion tests.)
Series [3] concerns E. faecalis ATCC29212. In words: Well diffusion inhibition zone, E. faecalis. Particulars: Enterococcus faecalis, ATCC29212, read-out: Inhibition zone E. faecalis ATCC29212.
The subject of series [4] is P. aeruginosa ATCC10145. As to the kind of experiment: Well diffusion inhibition zone, P. aeruginosa. To be noted: Pseudomonas aeruginosa, ATCC10145, read-out: Inhibition zone P. aeruginosa ATCC10145.
For series [5], the target named is T1, mutant EGFRL858R (Homo sapiens, UniProt P00533, L858R).
Series [6] has as its target T2, EGFRT790M (Homo sapiens, UniProt P00533, T790M).
Series [7] can be described thus: in vitro. To be noted: human, WI-38 normal lung fibroblast cells.
Series [8] concerns the target T1, mutant EGFRL858R. As to the kind of experiment: biochemical.
Series [9] addresses T2, EGFRT790M. In words: biochemical.
The subject of series [10] is cervical carcinoma (HeLa). As to the kind of experiment: MTT cytotoxicity assay, HeLa. Particulars: for SI HeLa: IC50 WI-38 / IC50 HeLa; for IC50: read-out: IC50 HeLa, MTT, mean ± SD of three measurements.
Series [11] concerns breast carcinoma (MCF-7). In words: MTT cytotoxicity assay, MCF-7. To be noted: for SI MCF-7: IC50 WI-38 / IC50 MCF-7; for IC50: read-out: IC50 MCF-7, MTT, mean ± SD of three measurements.
The subject of series [12] is liver carcinoma (HepG-2). As to the kind of experiment: MTT cytotoxicity assay, HepG-2. Particulars: for SI HepG-2: IC50 WI-38 / IC50 HepG-2; for IC50: read-out: IC50 HepG-2, MTT, mean ± SD of three measurements. A general note: Formazan colour is commonly taken as a measure of viable cells.
Series [13] concerns the target EGFRWT (Homo sapiens, UniProt P00533). As to the kind of experiment: HTRF enzyme inhibitory assay, EGFR WT.
Series [14] has as its system HeLa, HepG-2, and MCF-7. In words: MTT cytotoxicity, range over the cancer cell panel. Particulars: read-out: IC50 across HeLa, HepG-2 and MCF-7; range over all examined cancer cell lines.
For series [15], the system named is E. coli ATCC25915. As to the kind of experiment: MIC, two-fold serial dilution, E. coli. In kind it is cell-based. Particulars: Escherichia coli.
The test system of series [16] is S. aureus ATCC25923. As to the kind of experiment: MIC, two-fold serial dilution, S. aureus. In kind it is cell-based, Staphylococcus aureus. To be noted: for MIC: Staphylococcus aureus, ATCC25923.
The test system of series [17] is E. faecalis ATCC29212. In words: MIC, two-fold serial dilution, E. faecalis. In kind it is cell-based, Enterococcus faecalis. To be noted: for MIC: Enterococcus faecalis, ATCC29212.
In series [18] the test system is P. aeruginosa ATCC10145. As to the kind of experiment: MIC, two-fold serial dilution, P. aeruginosa. In kind it is cell-based. To be noted: Pseudomonas aeruginosa.
The mark [19] stands for this setting: potency relative to wild-type EGFR.

≈ marks a conversion by molar mass, not a printed value. Where “and” joins values, the source holds several entries; their conditions need not be identical. Equal entries are not always repeated. Where two headings read alike, the source gives them in different places.

The record followed here is PMC12567244, “Innovative Amino-Functionalization of Pyrido[2,3-d]pyrimidine Scaffolds for Broad Therapeutic Applications Supported by Computational Analyses” (Pharmaceuticals, 2025).

For orientation: IC50 means the midpoint of a concentration-inhibition curve. For orientation: MIC means the least concentration at which growth counts as inhibited.

Chain of EGFRWT (P00533 25-1210): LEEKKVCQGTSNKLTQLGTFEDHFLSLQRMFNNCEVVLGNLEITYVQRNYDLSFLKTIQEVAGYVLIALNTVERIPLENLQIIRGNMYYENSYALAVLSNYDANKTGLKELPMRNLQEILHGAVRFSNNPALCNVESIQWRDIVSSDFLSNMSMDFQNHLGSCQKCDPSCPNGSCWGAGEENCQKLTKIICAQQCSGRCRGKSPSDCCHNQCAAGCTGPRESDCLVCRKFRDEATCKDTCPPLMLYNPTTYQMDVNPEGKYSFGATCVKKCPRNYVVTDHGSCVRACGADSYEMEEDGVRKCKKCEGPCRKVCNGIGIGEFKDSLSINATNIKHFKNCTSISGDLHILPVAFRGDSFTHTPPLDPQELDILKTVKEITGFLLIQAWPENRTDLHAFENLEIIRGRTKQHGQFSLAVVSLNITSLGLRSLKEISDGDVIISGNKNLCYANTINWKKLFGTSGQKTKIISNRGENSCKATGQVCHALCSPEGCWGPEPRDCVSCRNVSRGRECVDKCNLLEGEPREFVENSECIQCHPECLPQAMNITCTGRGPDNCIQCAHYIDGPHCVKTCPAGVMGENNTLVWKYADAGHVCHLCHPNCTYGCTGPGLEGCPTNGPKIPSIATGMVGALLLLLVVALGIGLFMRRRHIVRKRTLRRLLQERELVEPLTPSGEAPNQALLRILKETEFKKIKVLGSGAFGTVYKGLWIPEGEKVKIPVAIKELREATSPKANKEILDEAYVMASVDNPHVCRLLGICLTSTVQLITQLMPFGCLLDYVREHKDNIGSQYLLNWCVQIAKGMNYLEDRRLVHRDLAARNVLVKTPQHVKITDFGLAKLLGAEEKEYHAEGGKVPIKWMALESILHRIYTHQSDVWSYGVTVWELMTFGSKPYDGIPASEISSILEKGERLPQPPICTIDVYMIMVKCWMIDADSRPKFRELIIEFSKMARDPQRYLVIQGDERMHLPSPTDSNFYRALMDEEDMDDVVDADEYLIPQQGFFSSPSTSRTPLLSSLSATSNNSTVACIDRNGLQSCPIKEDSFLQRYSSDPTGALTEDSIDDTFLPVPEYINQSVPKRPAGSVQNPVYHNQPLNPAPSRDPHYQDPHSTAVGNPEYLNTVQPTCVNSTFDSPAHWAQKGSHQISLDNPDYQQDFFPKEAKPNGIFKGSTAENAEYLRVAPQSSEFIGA
T2 sequence (P00533 25-1210 T790M): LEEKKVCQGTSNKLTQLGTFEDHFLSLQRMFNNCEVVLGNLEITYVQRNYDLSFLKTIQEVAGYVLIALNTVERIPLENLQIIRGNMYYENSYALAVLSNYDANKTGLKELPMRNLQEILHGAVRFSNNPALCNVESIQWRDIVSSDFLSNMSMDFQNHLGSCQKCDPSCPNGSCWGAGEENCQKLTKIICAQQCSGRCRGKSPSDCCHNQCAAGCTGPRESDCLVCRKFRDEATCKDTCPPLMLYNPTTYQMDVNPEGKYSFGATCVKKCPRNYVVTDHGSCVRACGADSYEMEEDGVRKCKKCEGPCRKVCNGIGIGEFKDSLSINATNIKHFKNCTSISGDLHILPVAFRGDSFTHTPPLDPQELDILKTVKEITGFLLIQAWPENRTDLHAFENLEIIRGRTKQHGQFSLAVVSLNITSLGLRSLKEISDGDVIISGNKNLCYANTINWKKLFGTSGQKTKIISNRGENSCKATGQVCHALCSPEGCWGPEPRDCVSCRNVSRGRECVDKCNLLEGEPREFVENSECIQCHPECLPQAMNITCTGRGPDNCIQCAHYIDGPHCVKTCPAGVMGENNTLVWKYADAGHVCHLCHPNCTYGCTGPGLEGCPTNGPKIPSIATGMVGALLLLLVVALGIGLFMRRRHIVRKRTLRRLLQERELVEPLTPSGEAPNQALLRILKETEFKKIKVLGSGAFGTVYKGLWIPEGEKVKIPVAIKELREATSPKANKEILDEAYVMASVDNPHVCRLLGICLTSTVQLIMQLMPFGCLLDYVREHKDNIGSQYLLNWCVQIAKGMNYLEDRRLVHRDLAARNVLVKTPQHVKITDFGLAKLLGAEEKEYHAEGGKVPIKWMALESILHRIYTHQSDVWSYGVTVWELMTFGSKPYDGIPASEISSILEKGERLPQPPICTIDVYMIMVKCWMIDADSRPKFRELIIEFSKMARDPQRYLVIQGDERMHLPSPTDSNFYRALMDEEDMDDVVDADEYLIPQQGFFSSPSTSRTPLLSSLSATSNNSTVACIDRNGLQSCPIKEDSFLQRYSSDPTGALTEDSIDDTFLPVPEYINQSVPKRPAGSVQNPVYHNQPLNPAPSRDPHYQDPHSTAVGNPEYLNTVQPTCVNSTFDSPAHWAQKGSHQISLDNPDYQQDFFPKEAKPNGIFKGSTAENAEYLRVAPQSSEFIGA
T1 sequence (P00533 25-1210 L858R): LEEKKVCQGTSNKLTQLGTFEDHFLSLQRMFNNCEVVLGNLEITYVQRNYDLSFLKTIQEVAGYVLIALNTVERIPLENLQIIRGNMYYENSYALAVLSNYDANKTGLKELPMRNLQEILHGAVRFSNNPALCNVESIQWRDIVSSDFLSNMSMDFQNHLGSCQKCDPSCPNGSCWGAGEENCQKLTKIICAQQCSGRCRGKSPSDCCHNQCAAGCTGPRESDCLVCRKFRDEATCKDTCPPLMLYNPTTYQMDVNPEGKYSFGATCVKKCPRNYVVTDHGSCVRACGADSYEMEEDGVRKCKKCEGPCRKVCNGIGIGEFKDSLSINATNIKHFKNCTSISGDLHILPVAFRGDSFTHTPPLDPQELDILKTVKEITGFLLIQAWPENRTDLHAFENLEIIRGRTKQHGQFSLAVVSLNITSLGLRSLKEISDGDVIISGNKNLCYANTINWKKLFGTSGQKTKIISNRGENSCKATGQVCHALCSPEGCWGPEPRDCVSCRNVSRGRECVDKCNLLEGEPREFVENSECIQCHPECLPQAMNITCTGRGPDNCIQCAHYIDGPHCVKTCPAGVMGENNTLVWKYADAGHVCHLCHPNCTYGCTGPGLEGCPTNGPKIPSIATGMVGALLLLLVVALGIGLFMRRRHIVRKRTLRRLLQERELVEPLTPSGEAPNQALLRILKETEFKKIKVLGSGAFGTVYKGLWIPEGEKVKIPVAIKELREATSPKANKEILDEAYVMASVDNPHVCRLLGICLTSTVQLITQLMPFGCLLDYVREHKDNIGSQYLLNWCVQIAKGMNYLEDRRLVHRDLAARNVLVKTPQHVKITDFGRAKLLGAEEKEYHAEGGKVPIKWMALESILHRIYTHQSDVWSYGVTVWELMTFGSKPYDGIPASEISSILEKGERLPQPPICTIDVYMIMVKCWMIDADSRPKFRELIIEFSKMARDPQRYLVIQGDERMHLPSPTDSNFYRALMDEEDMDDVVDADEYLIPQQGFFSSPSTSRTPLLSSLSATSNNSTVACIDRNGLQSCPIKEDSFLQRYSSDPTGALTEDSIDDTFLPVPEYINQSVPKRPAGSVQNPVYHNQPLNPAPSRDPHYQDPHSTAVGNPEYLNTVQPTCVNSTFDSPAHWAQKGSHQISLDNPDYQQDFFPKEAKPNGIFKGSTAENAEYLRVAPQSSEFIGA

For the compound `O=C(O)c1cn(C2CC2)c2cc(N3CCNCC3)c(F)cc2c1=O` [Ciprofloxacin, reference compound], the zone of inhibition at 50 µg/mL in series [1] is 10 mm; in series [2], 8 ± 0.15 mm; in series [3], 7.5 mm; in series [4], 12.3 ± 0.4 mm.

In the case of `Cn1c(=O)c2c(-c3ccc(Cl)cc3)c(C(=O)NN)c(N)nc2n(C)c1=O` [Compound 2, 7-Amino-5-(4-chlorophenyl)-1,3-dimethyl-2,4-dioxo-1,2,3,4-tetrahydropyrido[2,3-d]pyrimidine 6-carbohydrazide], the “%inh EGFR_L858R” value in [5] (conc 0.01) came to 6.07%; in series [5] (conc 0.1), 19%; in [5] (conc 1), 43.5%; in series [5] (conc 10), 68.3%; in series [5] (conc 100), 90.7%. In addition, the “Fold-Change L858R/WT” value in series [5] (setting [19]) is 7.5 × and 7.56×. The “Fold-Change T790M/WT” value in series [6] (setting [19]) was found to be 4.03×. The half-maximal inhibitory concentration (IC50) at 48 h in series [7] was determined as 64.1 ± 3.5 µM. Also, the IC50 in series [8] was 1.6 ± 0.05 µM; in series [9], 0.854 ± 0.027 µM; in series [10], 7.54 ± 0.7 µM; in series [11] it was 8.61 ± 0.6 µM; in series [12], 12.9 ± 1 µM; in [13], 0.212 ± 0.007 µM. Further, in series [14], the IC50 was in the range of 7.54 to 12.9 µM. Further, in series [10], the “SI HeLa” value was determined as 8.6. Besides, the “SI MCF-7” value in series [11] was 7.44. Also, the “SI HepG-2” value in [12] stood at 4.95. The “%inh EGFR WT” value in series [13] (conc 0.01) was found to be 24.6%; in [13] (conc 0.1), 42.5%; in series [13] (conc 1), 67.1%; in series [13] (conc 10), 81.4%; in series [13] (conc 100), 94.6%.

In the case of `Cn1c(=O)c2c(-c3ccc(Cl)cc3)c(C3=NN=C4N=CN=C(N)C43)c(N)nc2n(C)c1=O` (centres unmarked) [Compound 12, 7-Amino-6-(4-amino-3aH-pyrazolo [3,4-d]pyrimidin-3-yl)-5-(4-chlorophenyl)-1,3-dimethylpyrido[2,3-d]pyrimidine-2,4(1H,3H)-dione], the MIC was 50 µg/mL (≈ 111 µM) in series [15], > 100 µg/mL in series [16], 100 µg/mL (≈ 222 µM) in series [17] and 50 µg/mL (≈ 111 µM) in series [18]. In addition, the “MIC S. aureus ATCC25923” value in series [16] is given as >100 µg/mL. For the same compound, the “%inh EGFR_T790M” value in series [6] (conc 0.01) worked out at 6.2%; in series [6] (conc 0.1) it was 29.8%; in series [6] (conc 1), 52.9%; in [6] (conc 10), 75.1%; in series [6] (conc 100) it was 93.5%. Half-maximal inhibition in series [7] (IC50 at 48 h) was put at 18.2 ± 1.4 µM. Moreover, the “SI HeLa” value in series [10] was 0.41. In addition, the IC50 is 44.2 ± 2.6 µM in series [10], 58.8 ± 3.3 µM in series [11] and 54.3 ± 3.2 µM in series [12]. Also, the “SI MCF-7” value in [11] was found to be 0.31. The “SI HepG-2” value in series [12] is 0.33. Moreover, the zone of inhibition at 100 µg/mL in series [1] was 10.4 ± 0.08 mm; in [3], 2 ± 0.05 mm; in series [4], 10.5 mm.

`Cc1cc(C)n(-c2c[nH]nc2NC(=O)c2c(N)nc3c(c2-c2ccc(Cl)cc2)c(=O)n(C)c(=O)n3C)n1` [Compound 13, 7-Amino-5-(4-chlorophenyl)-N-(3,5-dimethyl-1′H-[1,4′-bipyrazol]-3′-yl)-1,3-dimethyl-2,4-dioxo-1,2,3,4-tetrahydropyrido[2,3-d]pyrimidine-6-carboxamide]: the MIC in [15] is 50 µg/mL (≈ 96.2 µM); in series [16] it was > 100 µg/mL; in series [17], > 100 µg/mL; in [18], 100 µg/mL (≈ 192 µM). In addition, in series [16], the “MIC S. aureus ATCC25923” value was >100 µg/mL. In addition, in [17], the “MIC E. faecalis ATCC29212” value is reported as >100 µg/mL. This compound also showed a half-maximal inhibitory concentration (IC50) at 48 h in series [7] of 10.7 ± 0.8 µM. In addition, the “SI HeLa” value in series [10] worked out at 0.37. Moreover, the half-maximal inhibitory concentration (IC50) in series [10] is 28.7 ± 1.9 µM; in series [11], 36.1 ± 2.2 µM; in series [12] it was 32.6 ± 2.1 µM; in series [14], 28 to 36 µM. Besides, the “SI MCF-7” value in series [11] amounted to 0.29. The “SI HepG-2” value in series [12] was found to be 0.32. Further, the zone of inhibition at 100 µg/mL turned out to be 14.5 ± 0.15 mm in series [1] and 16.8 mm in series [4].

In series [7], `Cn1c(=O)c2c(-c3ccc(Cl)cc3)c(-c3nnc4n3N=C(Cl)CS4)c(N)nc2n(C)c1=O` [Compound 14, 7-Amino-6-(6-chloro-7H-[1,2,4]triazolo [3,4-b][1,3,4]thiadiazin-3-yl)-5-(4-chlorophenyl)-1,3-dimethylpyrido[2,3-d]pyrimidine-2,4(1H,3H)-dione] came in with an IC50 at 48 h of 22.5 ± 1.6 µM. In series [10], the “SI HeLa” value turned out to be 0.32. Also, the IC50 was 68.7 ± 3.6 µM in series [10]; 75.1 ± 3.8 µM in series [11]; 93.7 ± 4.8 µM in series [12]; > 50 µM and 69 to 94 µM in series [14]. Further, in [11], the “SI MCF-7” value is on record as 0.29. Besides, the “SI HepG-2” value in series [12] turned out to be 0.23. Further, the figures for the zone of inhibition at 100 µg/mL in series [1], in [2] and in [4] were 8.15 ± 0.3 mm, 3 ± 0.05 mm and 9.5 mm, respectively.

As to `CC1=NN(C(=S)NC(=O)c2c(N)nc3c(c2-c2ccc(Cl)cc2)c(=O)n(C)c(=O)n3C)C(=O)C1` [Compound 16, 7-Amino-5-(4-chlorophenyl)-1,3-dimethyl-N-(3-methyl-5-oxo-4,5-dihydro-1H-pyrazole-1-carbonothioyl)-2,4-dioxo-1,2,3,4-tetrahydropyrido[2,3-d]pyrimidine-6-carboxamide], the minimum inhibitory concentration (MIC) was determined as 50 µg/mL (≈ 100 µM) in series [15], 100 µg/mL (≈ 200 µM) in [16] and 100 µg/mL (≈ 200 µM) in series [17]. Further, in [7], half-maximal inhibition (IC50 at 48 h) required 57.6 ± 3.2 µM. Besides, in series [10], the “SI HeLa” value worked out at 1.65. The IC50 in series [10] is 34.8 ± 2.1 µM; in [11], 42.9 ± 2.5 µM; in [12], 65.1 ± 3.4 µM; in [14], 35 to 65 µM. Further, the “SI MCF-7” value in [11] is listed as 1.34. The “SI HepG-2” value in series [12] is listed as 0.88. The zone of inhibition at 100 µg/mL in series [1] came to 18.5 ± 0.15 mm; in series [2], 4.5 ± 0.1 mm; in series [3], 4 ± 0.6 mm; in series [4], 17.6 mm.
